In patent US9999649B2, “Peptide having ability to synthesize collagen and use thereof” (NOVACELL TECHNOLOGY INC., priority 2013, dated 2018):
No end group written: not given here. *: point of attachment. Palmitoyl = CCCCCCCCCCCCCCCC(=O)*; Oleyl = CCCCCCCC/C=C\CCCCCCCC*

Experiments:
Type in all cases: cell-based, human
ERK = ERK phosphorylation by Pal-YIGSR peptide, immunoblotting in Hs27 skin fibroblasts; settings: FIG. 8
Description: Hs27 skin fibroblasts, which are under culture, were treated with the peptide derivatives prepared in Examples 1 and 2, and Comparative Example 2, and an amount of expressed type I collagen in the cells were measured by an immunoblotting method. The Hs27 skin fibroblasts were cultured by using DMEM medium, (Lonza, USA), to which 10% FBS was added (Lonza, USA), under the condition of 95% of humidity, 5% CO2, and 37° C. Hs27 skin fibroblasts were treated with each concentration of the peptide (0, 2, 25, 50 and 100 μM) for 24 hours or 100 μM of the peptide for each period of time (0, 0.5, 6, 12 and 24 hours). Then, the treated cells were sonicated in the lysis buffer (150 mM NaCl, 1% Triton X-100, 10 mM Tris, 1 mM EDTA, pH 7.4). Thereafter, supernatant was isolated through centrifugation, and quantification was performed through Bradford assay. The same amount of a protein was mixed in a 5× sample buffer and the mixture was heated for 5 minutes at 95° C. The resultant was electrophoresed on 6-15% concentration gradient SDS-Polyacrylamide gel electrophoresis (SDS-PAGE) and then adsorbed to a nitrocellulose membrane. […]

Hs27 skin fibroblasts = experiment: Cell growth by crystal violet assay; settings: 72 hours
Description: The Hs27 skin fibroblasts were seeded on a 24-well culture plate (40,000 cells per each), and cultured under 5% CO2, and 37° C. for 24 hours to allow cells to be attached to a bottom of the culture plate. Next day, a medium was changed to a medium including FBS. Then, cells were cultured again for 24 hours and treated with the peptide derivatives of Examples 1 and 2, and Comparative Examples 1 and 2 followed by further culture of 72 hours. Then, cell growth was measured through crystal violet assay.
Specifically, the medium in each well was removed, and […] of 0.1% crystal violet solution was added to each well followed by 5 minutes of staining. Then, the crystal violet solution was removed, and wells were washed with deionized water four times until the well became transparent. When the washed distilled water became transparent, distilled water was removed. Then, 1 ml of 95% ethanol was added with stirring for 20 minutes to dissolve crystal violet from stained cells. […] of the solution was dispensed to a 96-well plate, and absorbance was measured at 590 nm by using ELISA reader. Then, relative cell growth was calculated by using, as a control, a group which was not treated with a material to be tested.

type I collagen = experiment: Type I collagen synthesis by Pal-YIGSR peptide, immunoblotting in Hs27 skin fibroblasts; settings: for effect compared with the original YIGSR peptide: collagen I production, summary statement b41
Description: Hs27 skin fibroblasts, which are under culture, were treated with the peptide derivatives prepared in Examples 1 and 2, and Comparative Example 2, and an amount of expressed type I collagen in the cells were measured by an immunoblotting method. The Hs27 skin fibroblasts were cultured by using DMEM medium, (Lonza, USA), to which 10% FBS was added (Lonza, USA), under the condition of 95% of humidity, 5% CO2, and 37° C. Hs27 skin fibroblasts were treated with each concentration of the peptide (0, 2, 25, 50 and 100 μM) for 24 hours or 100 μM of the peptide for each period of time (0, 0.5, 6, 12 and 24 hours). Then, the treated cells were sonicated in the lysis buffer (150 mM NaCl, 1% Triton X-100, 10 mM Tris, 1 mM EDTA, pH 7.4). Thereafter, supernatant was isolated through centrifugation, and quantification was performed through Bradford assay. The same amount of a protein was mixed in a 5× sample buffer and the mixture was heated for 5 minutes at 95° C. The resultant was electrophoresed on 6-15% concentration gradient SDS-Polyacrylamide gel electrophoresis (SDS-PAGE) and then adsorbed to a nitrocellulose membrane. Anti-type I collagen primary antibody (Rockland, USA), anti-phospho-ERK primary antibody (Cell signaling, USA), and anti-actin primary antibody (Santa Cruz, USA) were diluted in TBST buffer (Tris buffered saline with 0.05% Tween 20, pH 7.6) including 5% skimmed milk and reacted for 16 hours. Then, the resultant was washed with TBST for 10 minutes 6 times. Then, the membrane was treated with anti-mouse rabbit peroxidase-conjugated secondary antibody (KPL, USA) for reaction for one hour at room temperature, and washed again with TBST 6 times for 10 minutes followed by development with the enhanced chemiluminescent (ECL) solution (Amersham, USA) for evaluation.

collagen = experiment: Influence of palmitoyl group: collagen synthesis by RGD and Pal-RGD peptides; settings: FIG. 10
Description: Then, the treated cells were sonicated in the lysis buffer (150 mM NaCl, 1% Triton X-100, 10 mM Tris, […], pH 7.4). Thereafter, supernatant was isolated through centrifugation, and quantification was performed through Bradford assay. The same amount of a protein was mixed in a 5× sample buffer, and the mixture was heated for 5 minutes at 95° C. The resultant was electrophoresed on 6-15% concentration gradient SDS-polyacrylamide gel electrophoresis (SDS-PAGE), and then adsorbed to a nitrocellulose membrane. An anti-type I collagen primary antibody (Rockland, USA) and anti-actin primary antibody (Santa Cruz, USA) were diluted in TBST buffer (Tris buffered saline with 0.05% Tween 20, pH 7.6) including 5% skimmed milk and reacted for 16 hours. Then, the resultant was washed with TBST for 10 minutes 6 times. Thereafter, the membrane was treated with an anti-mouse rabbit peroxidase-conjugated secondary antibody (KPL, USA) for reaction for one hour at room temperature, and washed again with TBST 6 times for 10 minutes followed by development with the enhanced chemiluminescent (ECL) solution (Amersham, USA) for evaluation. In addition, the western blot image was quantitatively compared with densitometric analysis by using image J program (Ver 1.38, //rsbweb.nih.gov/ij/index.html). […]

[1] = test system: collagen I expression induced by YIGSR peptide; experiment: YIGSR peptide-induced collagen I expression under FAK and MEK inhibitors, western blot; settings: Hs27 cells, 1 μM inhibitor with 1 μM YIGSR peptide, 24 hours
Description: To evaluate whether collagen I expression induced by YIGSR peptide according to one embodiment of the present invention is mediated by FAK and MAPK or not, FAK and MEK inhibitors were used.
Hs27 cells of Example 3 were cultured in a 24-well plate provided that the cells were cultured in a serum-free state for 24 hours. Then, the cells were treated with 1 μM of the FAK-specific inhibitor, PF573228 (Tocris Bioscience, United Kingdom) for 24 hours.

Compound | ERK phosphorylation induction (ERK) | effect compared with the original YIGSR peptide (type I collagen) | collagen synthesis degree versus control (collagen) | effect of inhibitor on collagen I expression induced by YIGSR peptide [1] | also measured
Palmitoyl-YIGSR [Pal-YIGSR, peptide derivative in which a palmitoyl group is attached to an N-terminal of the YIGSR peptide] | observed | more potent effect than the YIGSR peptide |  |  | cell growth relative to untreated control (Hs27 skin fibroblasts; 100 μM): 13%; cell growth relative to untreated control (Hs27 skin fibroblasts; 500 μM): 23%; concentration range in which cell growth was shown (Hs27 skin fibroblasts): 0.5 to 50 µM; amount of synthesized collagen depending on concentration (type I collagen; 0, 2, 25, 50 and 100 μM, 24 hours): increased as concentration increased; amount of synthesized collagen depending on exposure time (type I collagen; 100 μM, 0, 0.5, 6, 12 and 24 hours): increased as exposure time increased
RGD [RGD peptide] |  |  | not significantly different from that of the control |  | 
COc1cccc(-c2cc(=O)c3ccccc3o2)c1N [PD98059] |  |  |  | remarkably inhibited | 
Pal-RGD [Pal-RGD peptide] |  |  | not significantly different from that of the control |  | 
Oleyl-YIGSR [YIGSR peptide having an N-terminal, to which an oleyl group is added instead of the palmitoyl group] | rarely affect ERK phosphorylation | no improved activity |  |  | degree of collagen synthesis compared with control and Pal-YIGSR (type I collagen; Hs27 skin fibroblasts, FIG. 7): no difference from the control
CS(=O)(=O)c1cccc(CNc2nc(Nc3ccc4c(c3)CCC(=O)N4)ncc2C(F)(F)F)c1 [PF573228] |  |  |  | remarkably repressed | 
